{
  "source": "patent US10919941B2",
  "about": "“Functional lipid constructs” (KODE BIOTECH LIMITED, priority 2007, dated 2021)",
  "key": {"[1]": {"system": "Miltenberger Antibody Positive Panel", "assay": "Reactivity of modified RBCs against the Miltenberger Antibody Positive Panel", "assay_type": "cell-based, human", "design": "key to score vs panel 15 TAP2 / score vs panel 4 T7202 / score vs panel 8 T5896 / score vs panel 2 T217 / score vs panel 3 T165 / score vs panel 14 TAP1 / score vs panel 10 Mia / score vs panel 11 Mur / score vs panel 12 Gam / score vs panel 6 T6025 / score vs panel 7 T8445 / score vs panel 9 MIII / score vs panel 13 BoxH / reactivity with Panel Serum #7 (T8445) / agglutination score, Panel Serum #7 (T8445): 0 or ‘−’ no agglutination; 0 or ‘−’ no agglutination; 1+ or 3=very weak agglutination; 1+ or 3=very weak agglutination; 2+ or 5=weak agglutination; 2+ or 5=weak agglutination; 3+ or 8=moderate strong agglutination; 3+ or 8=moderate strong agglutination; 4+ or 10/12=strong agglutination; 4+ or 10/12=strong agglutination; 4+ or 10/12=strong agglutination"}, "[2]": {"system": "natural Mi III antibody reactive human serums", "assay": "Positive serum reactivity of modified RBCs in the field", "assay_type": "cell-based", "design": "key: 0 or ‘−’ no agglutination; 0 or ‘−’ no agglutination; 1+ or 3=very weak agglutination; 1+ or 3=very weak agglutination; 2+ or 5=weak agglutination; 2+ or 5=weak agglutination; 3+ or 8=moderate strong agglutination; 3+ or 8=moderate strong agglutination; 4+ or 10/12=strong agglutination; 4+ or 10/12=strong agglutination; 4+ or 10/12=strong agglutination", "conditions": "22 at 50, 17 and 24 at 200 μg/ml; 3 h RT then 18 h 4° C.", "description": "The suspensions are either: • 1. incubated for 2 hours at 37° C. before being washed and suspended in a cell medium for serological analysis at a concentration of 0.8 to 3% (Method 1); or • 2. incubated for 3 to 4 hours at room temperature (circa 25° C.) followed by 18 hours at 4° C. before being washed and suspended in a cell medium for serological analysis at a concentration of 0.8 to 3% (Method 2).\nSerological reactions are graded or scored by either of two established systems (0 or ‘−’ no agglutination, 1+ or 3=very weak agglutination, 2+ or 5=weak agglutination, 3+ or 8=moderate strong agglutination, 4+ or 10/12=strong agglutination)"}},
  "note": "No end group written: not given here.",
  "data": [
    {"substance": "M22: DOPE peptide-lipid construct: MUTK peptide SQTNDKHKRD, leader c, spacer CMG(2) (SQTNDKHKRDC; also: DOPE peptide-lipid construct via leader Cys, spacer CMG(2))", "values": [
      {"measurement": "sensitivity and specificity towards a human polyclonal antibody panel compared with sequence 1", "setting": "[1]; MUT peptides, prior art sequence 1", "value": "superior sensitivity and specificity"},
      {"measurement": "score vs panel 2 T217", "setting": "[1]; Table 8, construct 200 μg/ml", "value": 0},
      {"measurement": "score vs panel 3 T165", "setting": "[1]; Table 8, construct 200 μg/ml", "value": 0},
      {"measurement": "score vs panel 4 T7202", "setting": "[1]; Table 8, construct 200 μg/ml", "value": 0},
      {"measurement": "score vs panel 6 T6025", "setting": "[1]; Table 8, construct 200 μg/ml", "value": 10},
      {"measurement": "score vs panel 7 T8445", "setting": "[1]; Table 8, construct 200 μg/ml", "value": 0},
      {"measurement": "score vs panel 8 T5896", "setting": "[1]; Table 8, construct 200 μg/ml", "value": 0},
      {"measurement": "score vs panel 9 MIII", "setting": "[1]; Table 8, construct 200 μg/ml", "value": 0},
      {"measurement": "score vs panel 10 Mia", "setting": "[1]; Table 8, construct 200 μg/ml", "value": 0},
      {"measurement": "score vs panel 11 Mur", "setting": "[1]; Table 8, construct 200 μg/ml", "value": 0},
      {"measurement": "score vs panel 12 Gam", "setting": "[1]; Table 8, construct 200 μg/ml", "value": 3},
      {"measurement": "score vs panel 15 TAP2", "setting": "[1]; Table 8, construct 200 μg/ml", "value": 0},
      {"measurement": "score vs Mi III reactive serum 488-6", "setting": "[2]", "value": 10},
      {"measurement": "score vs Mi III reactive serum 589-6", "setting": "[2]", "value": 0},
      {"measurement": "score vs Mi III reactive serum 621-3", "setting": "[2]", "value": 5},
      {"measurement": "score vs Mi III reactive serum 912485657-9", "setting": "[2]", "value": 0},
      {"measurement": "score vs Mi III reactive serum 914146821-8", "setting": "[2]", "value": 0},
      {"measurement": "score vs Mi III reactive serum 922390844-5", "setting": "[2]", "value": 0},
      {"measurement": "score vs Mi III reactive serum 926190919-0", "setting": "[2]", "value": 0},
      {"measurement": "score vs Mi III reactive serum 926555294-1", "setting": "[2]", "value": 0},
      {"measurement": "score vs Mi III reactive serum 927175131-4", "setting": "[2]", "value": 0},
      {"measurement": "score vs Mi III reactive serum 927299700-1", "setting": "[2]", "value": 0},
      {"measurement": "score vs Mi III reactive serum 927516053-2", "setting": "[2]", "value": 0},
      {"measurement": "score vs Mi III reactive serum 927619701-8", "setting": "[2]", "value": 0},
      {"measurement": "score vs Mi III reactive serum 932360876-4", "setting": "[2]", "value": 0},
      {"measurement": "score vs Mi III reactive serum 932467774-5", "setting": "[2]", "value": 0},
      {"measurement": "score vs Mi III reactive serum 932809044-1", "setting": "[2]", "value": 0},
      {"measurement": "score vs Mi III reactive serum 942223755-1", "setting": "[2]", "value": 0},
      {"measurement": "score vs Mi III reactive serum 942404708-4 (row interpreted Mur)", "setting": "[2]", "value": 0},
      {"measurement": "score vs Mi III reactive serum 942404708-4 (row interpreted other)", "setting": "[2]", "value": 0},
      {"measurement": "score vs Mi III reactive serum 942421413-0", "setting": "[2]", "value": 0},
      {"measurement": "score vs Mi III reactive serum 942423002-4", "setting": "[2]", "value": 0},
      {"measurement": "score vs Mi III reactive serum 942433813-3", "setting": "[2]", "value": 0},
      {"measurement": "score vs Mi III reactive serum 942433855-3", "setting": "[2]", "value": 0},
      {"measurement": "score vs Mi III reactive serum 942442720-2", "setting": "[2]", "value": 0},
      {"measurement": "score vs Mi III reactive serum 942448627-8", "setting": "[2]", "value": 0},
      {"measurement": "score vs Mi III reactive serum 942753165-4", "setting": "[2]", "value": 0},
      {"measurement": "score vs Mi III reactive serum 942762589-1", "setting": "[2]", "value": 0},
      {"measurement": "score vs Mi III reactive serum 9322338631", "setting": "[2]", "value": 0},
      {"measurement": "score vs Mi III reactive serum 9325490091", "setting": "[2]", "value": 5},
      {"measurement": "score vs Mi III reactive serum 9327986660", "setting": "[2]", "value": 8},
      {"measurement": "score vs Mi III reactive serum 9328118428", "setting": "[2]", "value": 0},
      {"measurement": "score vs Mi III reactive serum 9328154853", "setting": "[2]", "value": 0},
      {"measurement": "score vs Mi III reactive serum 9328791834", "setting": "[2]", "value": 5},
      {"measurement": "score vs Mi III reactive serum 9424248012", "setting": "[2]", "value": 0},
      {"measurement": "score vs Mi III reactive serum 9424292604", "setting": "[2]", "value": 0},
      {"measurement": "score vs Mi III reactive serum 9424396133", "setting": "[2]", "value": 0},
      {"measurement": "score vs Mi III reactive serum 9425256505", "setting": "[2]", "value": 0},
      {"measurement": "score vs Mi III reactive serum 9427455417", "setting": "[2]", "value": 0},
      {"measurement": "score vs Mi III reactive serum 9427613497", "setting": "[2]", "value": 0},
      {"measurement": "score vs Mi III reactive serum 9427615156", "setting": "[2]", "value": 0},
      {"measurement": "score vs Mi III reactive serum S-3", "setting": "[2]", "value": 0}
    ]}
  ]
}
